The values that follow come from patent publication US5218115A, “Cholecystokinin antagonists” (Merck & Co., Inc., priority 1992, dated 1993).

In one test the test system is CCK receptor. The note with it: in words; cited from earlier work.
A further test has as its system brain CCK (CCK-B). Particulars: in words; cited from earlier work.
In a further test the target is T1, CCK receptor (pancreas) (Rattus norvegicus, UniProt P30551).
T1 construct: The whole pancreas was dissected free of fat tissue and was homogenized; from tissue; host or cells: rat pancreas membranes (male Sprague-Dawley)
T1 sequence (P30551 1-444): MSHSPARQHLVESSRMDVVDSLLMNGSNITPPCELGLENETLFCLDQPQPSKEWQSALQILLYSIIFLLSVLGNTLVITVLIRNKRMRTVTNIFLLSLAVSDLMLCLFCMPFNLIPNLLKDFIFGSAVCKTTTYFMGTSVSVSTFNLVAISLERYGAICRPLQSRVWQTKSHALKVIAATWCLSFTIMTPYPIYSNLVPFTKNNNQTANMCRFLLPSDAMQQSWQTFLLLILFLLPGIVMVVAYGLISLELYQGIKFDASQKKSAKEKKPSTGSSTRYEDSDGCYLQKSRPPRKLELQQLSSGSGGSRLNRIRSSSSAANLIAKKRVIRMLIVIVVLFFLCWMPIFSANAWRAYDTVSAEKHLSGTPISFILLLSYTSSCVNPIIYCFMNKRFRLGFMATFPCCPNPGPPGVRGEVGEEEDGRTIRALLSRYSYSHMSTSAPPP
Nature of the test: CCK Receptor Binding (Pancreas), inhibition of 125I-CCK-8 binding. Also on record: species or system Male Sprague-Dawley rats. The note with it: 125I-CCK-8 50 pM, 25° C., 2 hours. As to the method: CCK-8 sulphated was radiolabelled with ^125 I-Bolton Hunter reagent (2000 Ci/mmole). Receptor binding was performed according to Chang and Lotti (Proc. Natl. Acad. Sci. 83, 4923-4926, 1986) with minor modifications.
Male Sprague-Dawley rats (150-200 g) were sacrificed by decapitation. The whole pancreas was dissected free of fat tissue and was homogenized in 25 volumes of ice-cold 10 mM Hepes buffer with 0.1% soya bean trypsin inhibitor (pH 7.4 at 25° C.) with a Kinematica Polytron. The homogenates were centrifuged at 47,800 g for 10 min. Pellets were resuspended in 10 volumes of binding assay buffer (20 mM Hepes, 1 mM EGTA, 5 mM MgCl2, 150 mM NaCl, bacitracin 0.25 mg/ml, soya bean trypsin inhibitor 0.1 mg/ml, and bovine serum albumin 2 mg/ml, pH 6.5 at 25° C.) using a teflon homogenizer, 15 strokes at 500 rpm. The homogenate was further diluted in binding assay buffer to give a final concentration of 0.5 mg original wet weight/1 ml buffer. […] All assays were run in duplicate. […] The radioactivity on the filters was counted with a LKB gamma counter.
(§1) Drug displacement studies were performed with at least 10 concentrations of compounds of formula 1 and the IC50 values were determined by regression analysis.

The target in test [1] is T2, Gastrin receptor (gastric glands) (Cavia porcellus, UniProt H0VZC5).
T2 construct: from tissue; host or cells: guinea pig gastric mucosal glands (male Hartley)
T2 sequence (H0VZC5 1-426): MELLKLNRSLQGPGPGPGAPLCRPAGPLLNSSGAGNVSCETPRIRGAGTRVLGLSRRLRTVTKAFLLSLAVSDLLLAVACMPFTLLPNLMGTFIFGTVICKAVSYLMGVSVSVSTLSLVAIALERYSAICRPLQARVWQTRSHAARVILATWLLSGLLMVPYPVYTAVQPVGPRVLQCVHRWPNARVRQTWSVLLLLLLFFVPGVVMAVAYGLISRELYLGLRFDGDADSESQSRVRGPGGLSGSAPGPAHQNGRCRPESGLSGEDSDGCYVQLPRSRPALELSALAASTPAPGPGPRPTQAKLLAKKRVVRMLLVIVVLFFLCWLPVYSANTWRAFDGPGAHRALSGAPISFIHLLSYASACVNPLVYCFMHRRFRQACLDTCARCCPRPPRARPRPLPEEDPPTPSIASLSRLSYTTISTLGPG
In words: Gastrin Receptor Binding in Guinea Pig Gastric Glands, 125I-gastrin. The note with it: 125I-gastrin 0.1 nM, 25° C., 30 minutes, read-out: CCK RECEPTOR BINDING RESULTS IC50, 125I-Gastrin Gastric Glands. Details: species or system guinea pigs, male Hartley. As to the method: Gastrin antagonist activity of compounds of Formula I is determined using the following assay.
A. Gastrin Receptor Binding in Guinea Pig Gastric Glands
Guinea pig gastric mucosal glands were prepared by the procedure of Chang et al., Science 230, 177-179 (1985) with slight modification. Gastric mucosa from guinea pigs (300-500 g body weight, male Hartley) were isolated by scraping with a glass slide after washing stomachs in ice-cold, aerated buffer consisting of the following: 130 mM NaCl, 12 mM NaHCO3, 3 mM NaH2 PO4, 3 mM Na2 HPO4, 3 mM K2 HPO4, 2 mM MgSO4, 1 mM CaCl2, 5 mM glucose and 4 mM L-glutamine, 50 mM HEPES, 0.25 mg/ml bacitracin, 0.10 mg/ml soya bean trypsin inhibitor, 0.1 mg/ml bovine serum albumin, at pH 6.5, and then incubated in a 37° C. shaking water bath for 40 minutes in buffer containing 1 mg/ml collagenase and bubbled with 95% O2 and 5% CO2. The tissues were passed twice through a 5 ml syringe to liberate the gastric glands, and then filtered through Nitex #202 gauge nylon mesh. The filtered glands were centrifuged at 272 g for 5 minutes and washed twice by resuspension in 25 ml buffer and centrifugation.
The washed guinea pig gastric glands prepared as above were resuspended in 25 ml of standard buffer. […] The radioactivity on the filters was measured using a LKB gamma counter.

For another test, the target named is T3, CCK receptor (brain) (Cavia porcellus, UniProt H0VZC5).
T3 construct: the cortex was removed and homogenized in 25 mL ice-cold 0.32M sucrose; from tissue; host or cells: guinea pig brain cortex P2 membranes (male Hartley)
T3 sequence (H0VZC5 1-426): T2 sequence (H0VZC5 1-426)
Nature of the test: CCK Receptor Binding (Brain), inhibition of 125I-CCK-8 binding. Also on record: species or system Male Hartley guinea pigs. The method, then: CCK-8 sulphated was radiolabelled and the binding was performed according to the description for the pancreas method with minor modifications.
Male Hartley guinea pigs (300-500 g) were sacrificed by decapitation and the cortex was removed and homogenized in 25 mL ice-cold 0.32M sucrose. The homogenates were centrifuged at 1000 g for 10 minutes and the resulting supernatant was recentrifuged at 20,000 g for 20 minutes. […] All assays were run in duplicate. The reaction mixtures were incubated at 25° C. for 2 hours and then the reaction was terminated on Whatman GF/C filters by rapid filtration (Brandell 24 well cell Harvester) with 3×5 ml washes of cold 100 mM NaCl. The radioactivity on the filters was then counted with a LKB gamma counter.
as §1

Another test deals with gastrin. The note with it: in words, in vitro; cited from earlier work.
[2] abbreviates: guinea pig cortex, 125I-CCK-8 50 pM, 25° C., 2 hours, read-out: CCK RECEPTOR BINDING RESULTS IC50, 125I-CCK Brain.

Broadly, the pIC50 is the negative decadic logarithm of the IC50, by convention in mol/L.

pIC50: −log10 of the molar value. “Also recorded” adds a separate entry of the source. Where two headings read alike, the source gives them in different places. Square brackets hold non-standard residues; d marks the D form. Peptide text beside a SMILES is read from it. * marks the point of attachment. sY = N[C@@H](Cc1ccc(OS(=O)(=O)O)cc1)C(=O)O; Cbz = O=C(OCc1ccccc1)*; Boc = CC(C)(C)OC(=O)*

For the compound `CSCC[C@H](NC(=O)[C@H](Cc1ccc(OS(=O)(=O)O)cc1)NC(=O)OCc1ccccc1)C(=O)NCC(=O)N[C@@H](Cc1c[nH]c2ccccc12)C(=O)N[C@@H](CCSC)C(=O)N[C@@H](CC(=O)O)C(N)=O` [Cbz-Tyr(SO3 H)-Met-Gly-Trp-Met-Asp-NH2] (Cbz-[sY]MGWMD-NH2), the CCK antagonist activity result in the test with CCK receptor is on record as “can function as CCK antagonists; also recorded: partial agonist”.

As for `Cc1cccc(NC(=O)N[C@@H]2N=C(c3ccccc3)c3ccccc3N(C)C2=O)c1` [(R)-N-(2,3-dihydro-1-methyl-2-oxo-5-phenyl-1H-1,4-benzodiazepin-3-yl)-N^1-(3-methylphenyl) urea], in the test with brain CCK (CCK-B), the “CCK-B receptor antagonism / selectivity” value was “potent and selective antagonist of CCK-B receptors”.

Turning to `CSCC[C@H](NC(=O)OC(C)(C)C)C(=O)N[C@@H](CC(=O)O)C(=O)N[C@@H](Cc1ccccc1)C(N)=O` [Boc-Met-Asp-Phe-NH2] (Boc-Met-Asp-Phe-NH2), in the test on CCK receptor, the CCK antagonist activity result is on record as “can function as CCK antagonists”.

Take `CCCC(=O)Nc1nc2c(ncn2[C@@H]2O[C@@H]3COP(=O)(O)O[C@H]3[C@H]2OC(=O)CCC)c(=O)[nH]1` [dibutyryl cyclic GMP]: the CCK antagonist activity result in the test on CCK receptor is “most potent”.

As to `Cc1cccc(NC(=O)NC2N=C(c3ccccc3)c3ccccc3N(Cc3c[nH]cn3)C2=O)c1` (stereo not shown) [Example 1, N-{1,3-Dihydro-1-[1H-4-imidazolyl]methyl-2-oxo-5-phenyl-1H-1,4-benzodiazepin-3-yl}-N'-{[3-methylphenyl]-urea}], the pIC50 is 7.96 on CCK receptor (pancreas), 8.44 in test [1] and 8.10 on CCK receptor (brain) (setting [2]).

`CSCC[C@H](N)C(=O)N[C@@H](CC(=O)O)C(=O)N[C@@H](Cc1ccccc1)C(N)=O` [Met-Asp-Phe-NH2] (H-Met-Asp-Phe-NH2): in the test on CCK receptor, the CCK antagonist activity result is “can function as CCK antagonists”.

As for `Cc1cccc(NC(=O)NC2N=C(c3ccccc3)c3ccccc3N(Cc3ncc[nH]3)C2=O)c1` (stereo not shown) [Example 3, N-{1,3-Dihydro-1-[1H-2-imidazolyl]methyl-2-oxo-5-phenyl-1H-1,4-benzodiazepin-3-yl}-N'-{[3-methylphenyl]-urea}], the pIC50 at CCK receptor (pancreas) is 6.59; at CCK receptor (brain), 7.23.

Consider `CCCN(CCC)C(=O)C(CCC(=O)O)NC(=O)c1ccccc1` (stereo not shown) [proglumide], for which, in the test with gastrin, the gastrin antagonist activity result was “very weak in vitro antagonists”.

As for `Cc1cccc(NC(=O)NC2N=C(c3ccccc3)c3ccccc3N(Cc3n[nH]c(C)n3)C2=O)c1` (racemic) [Example 4, N-{1,3-Dihydro-1-[5-(2-methyl-1,3,4-triazolo)-methylene]-2-oxo-5-phenyl-1H-1,4-benzodiazepin-3-yl}-N'-{[3-methylphenyl]-urea}], the pIC50 at CCK receptor (brain) (setting [2]) is 8.00.

Take `O=C(Nc1cccc(-c2nn[nH]n2)c1)N[C@@H]1N=C(c2ccccc2)c2ccccc2N(CC(=O)N2CCCC2)C1=O` [Example 2, N-{3-(R)-1,3-Dihydro-1-(pyrrolidinylcarbonyl)methyl-2-oxo-5-phenyl-1H-1,4-benzodiazepin-3(R)-yl}-N'-{[3-(1H-tetrazol-5-yl)phenyl]urea}]: the pIC50 at CCK receptor (brain) (setting [2]) is 9.92.
